# Reference: PMC10611619, “[^99mTc]Tc-PentixaTec: development, extensive pre-clinical evaluation, and first human experience” (European Journal of Nuclear Medicine and Molecular Imaging, 2023)
# Where a SMILES comes first, the peptide text is derived from it. Side-chain parts run from the residue outwards. [ ]: non-standard residue; d: D form. The star is where a group is joined. 2Nal = N[C@@H](Cc1ccc2ccccc2c1)C(=O)O; dNMeOrn = CN[C@H](CCCN)C(=O)O; 4Abz = Nc1ccc(C(=O)O)cc1; X1 = NCCNCC(CNCCN)C(=O)*; dDap = NC[C@@H](N)C(=O)O
# Assay: Patient radiation dosimetry (OLINDA/EXM, RADAR/MIRD)
# Format: in vivo, human
# Conditions: for Absorbed organ dose Muscle / Absorbed organ dose Osteogenic cells / Absorbed organ dose Ovaries / Absorbed organ dose Pancreas / Absorbed organ dose Red marrow / Absorbed organ dose Skin / Absorbed organ dose Small intestine / Absorbed organ dose Spleen / Absorbed organ dose Stomach wall / Absorbed organ dose Thymus / Absorbed organ dose Thyroid / Absorbed organ dose Total body / Absorbed organ dose ULI wall / Absorbed organ dose Urinary bladder wall / Absorbed organ dose Uterus / Absorbed organ dose Adrenals / Absorbed organ dose Brain / Absorbed organ dose Breast / Absorbed organ dose Gallbladder wall / Absorbed organ dose Heart wall / Absorbed organ dose Kidneys / Absorbed organ dose LLI wall / Absorbed organ dose Liver / Absorbed organ dose Lungs / Absorbed organ dose Testes: per 1 MBq
# Protocol: Radiation dosimetry calculations were performed using the RADAR (Radiation Dose Assessment Resource) method as implemented in the OLINDA/EXM software and according to the recommendations of the Medical Internal Radiation Dose (MIRD) committee. The individual absorbed organ doses (ODs) and the effective doses (EDs) were corrected to consider the current tissue weighting factors of ICRP 103 [38]. For a detailed description of image analysis for dosimetry, please refer to the supplementary materials section.
# The Xeleris^TM Dosimetry Toolkit (GE Healthcare, Milwaukee, USA) was used to perform full organ segmentation by an experienced user. This was performed manually on CT images of organs (kidneys, liver, spleen, heart, lungs, lumbar vertebrae 2-4) to define the regions and volumes of interest (VOIs) for gamma camera scans and SPECT analysis. Quantification of the activity in the VOIs was carried out as converting counts in the VOIs by a calibration factor to the average activity per milliliter and per organ.
# The VOIs were transferred from SPECT/CT to the planar images. Additional ROIs for the whole body and a background region adjacent to the head were drawn on the planar images.
# The VOIs were used to determine the masses of the individual organs. For the lungs, a density of 0.288 g/mL was used. For all organs not covered by any VOI, the uptake was summed as the contribution from the remainder of the body in the dose calculation.
# The time-integrated activity coefficients of all contoured organs were determined using the hybrid planar/SPECT method. Thus, the shape of the time-activity curves were estimated based on the planar images using the NUKFIT software and then scaled to activity values using the SPECT/CT. The accumulated activity in the bone marrow was calculated using the activity in the lumbar vertebrae 2-4 with the assumption that these contain 6.7% of the red bone marrow.
# Radiation dosimetry calculations were performed using the RADAR (Radiation Dose Assessment Resource) method as implemented in the OLINDA/EXM software and according to the recommendations of the Medical Internal Radiation Dose (MIRD) committee. The OLINDA/EXM application (version 1.0) was used to calculate the individual absorbed organ doses (ODs) and the effective doses (EDs) by using the time-integrated activity coefficients and the individual patients’ organ masses. A mass of 1500 g for the red bone marrow as assumed for all patients. The EDs were afterwards corrected to consider the current tissue weighting factors of ICRP 103 [16]. The absorbed OD and ED were evaluated for each patient and then averaged across all the patients.
compound,measurement,setting,value
"C[C@@H](NC(=O)[C@@H](CCCNC(=N)N)NC(=O)[C@@H](CN)NC(=O)C(CNCCN)CNCCN)C(=O)Nc1ccc(C(=O)NCCC[C@@H]2C(=O)N[C@@H](CCCNC(=N)N)C(=O)N[C@@H](Cc3ccc4ccccc4c3)C(=O)NCC(=O)N[C@H](Cc3ccc(O)cc3)C(=O)N2C)cc1 [[^99mTc]Tc-N4-L6-CPCR4, [^99mTc]Tc-N4-dap-r-a-Abz-CPCR4, metal not drawn] (cyclo([dY][dNMeOrn]([4Abz-dA-dR-dDap-X1])R[2Nal]G))",Absorbed organ dose Muscle,Patient 3,0.0044 mGy
same,Absorbed organ dose Osteogenic cells,Patient 3,0.0184 mGy
same,Absorbed organ dose Ovaries,Patient 3,0.0064 mGy
same,Absorbed organ dose Pancreas,Patient 3,0.0092 mGy
same,Absorbed organ dose Red marrow,Patient 3,0.0123 mGy
same,Absorbed organ dose Skin,Patient 3,0.0027 mGy
same,Absorbed organ dose Small intestine,Patient 3,0.0062 mGy
same,Absorbed organ dose Spleen,Patient 3,0.0202 mGy
same,Absorbed organ dose Stomach wall,Patient 3,0.0066 mGy
same,Absorbed organ dose Thymus,Patient 3,0.0045 mGy
same,Absorbed organ dose Thyroid,Patient 3,0.0039 mGy
same,Absorbed organ dose Total body,Patient 3,0.0052 mGy
same,Absorbed organ dose ULI wall,Patient 3,0.0063 mGy
same,Absorbed organ dose Urinary bladder wall,Patient 3,0.0053 mGy
same,Absorbed organ dose Uterus,Patient 3,0.0059 mGy
same,Absorbed organ dose Adrenals,Patient 4,0.00524 mGy
same,Absorbed organ dose Brain,Patient 4,0.00278 mGy
same,Absorbed organ dose Breast,Patient 4,0.00227 mGy
same,Absorbed organ dose Gallbladder wall,Patient 4,0.00502 mGy
same,Absorbed organ dose Heart wall,Patient 4,0.00317 mGy
same,Absorbed organ dose Kidneys,Patient 4,0.00936 mGy
same,Absorbed organ dose LLI wall,Patient 4,0.00428 mGy
same,Absorbed organ dose Liver,Patient 4,0.00636 mGy
same,Absorbed organ dose Lungs,Patient 4,0.00337 mGy
same,Absorbed organ dose Muscle,Patient 4,0.00318 mGy
same,Absorbed organ dose Osteogenic cells,Patient 4,0.011 mGy
same,Absorbed organ dose Ovaries,Patient 4,0.00451 mGy
same,Absorbed organ dose Pancreas,Patient 4,0.00571 mGy
same,Absorbed organ dose Red marrow,Patient 4,0.00617 mGy
same,Absorbed organ dose Skin,Patient 4,0.00209 mGy
same,Absorbed organ dose Small intestine,Patient 4,0.00455 mGy
same,Absorbed organ dose Spleen,Patient 4,0.0188 mGy
same,Absorbed organ dose Stomach wall,Patient 4,0.00441 mGy
same,Absorbed organ dose Testes,Patient 4,0.00282 mGy
same,Absorbed organ dose Thymus,Patient 4,0.00324 mGy
same,Absorbed organ dose Thyroid,Patient 4,0.00329 mGy
same,Absorbed organ dose Total body,Patient 4,0.00351 mGy
same,Absorbed organ dose ULI wall,Patient 4,0.00441 mGy
same,Absorbed organ dose Urinary bladder wall,Patient 4,0.00385 mGy
same,Absorbed organ dose Uterus,Patient 4,0.0044 mGy
same,Absorbed organ dose Adrenals,Range Max,0.0083 mGy
same,Absorbed organ dose Brain,Range Max,0.0039 mGy
same,Absorbed organ dose Breast,Range Max,0.0032 mGy
same,Absorbed organ dose Gallbladder wall,Range Max,0.0073 mGy
same,Absorbed organ dose Heart wall,Range Max,0.0054 mGy
same,Absorbed organ dose Kidneys,Range Max,0.0137 mGy
same,Absorbed organ dose LLI wall,Range Max,0.0062 mGy
same,Absorbed organ dose Liver,Range Max,0.0089 mGy
same,Absorbed organ dose Lungs,Range Max,0.0079 mGy
same,Absorbed organ dose Muscle,Range Max,0.0044 mGy
same,Absorbed organ dose Osteogenic cells,Range Max,0.0184 mGy
same,Absorbed organ dose Ovaries,Range Max,0.0064 mGy
same,Absorbed organ dose Pancreas,Range Max,0.0092 mGy
same,Absorbed organ dose Red marrow,Range Max,0.0135 mGy
same,Absorbed organ dose Skin,Range Max,0.0027 mGy
same,Absorbed organ dose Small intestine,Range Max,0.0062 mGy
same,Absorbed organ dose Spleen,Range Max,0.0238 mGy
same,Absorbed organ dose Stomach wall,Range Max,0.0066 mGy
same,Absorbed organ dose Testes,Range Max,0.0028 mGy
same,Absorbed organ dose Thymus,Range Max,0.0045 mGy
same,Absorbed organ dose Thyroid,Range Max,0.0039 mGy
same,Absorbed organ dose Total body,Range Max,0.0052 mGy
same,Absorbed organ dose ULI wall,Range Max,0.0063 mGy
same,Absorbed organ dose Urinary bladder wall,Range Max,0.0053 mGy
same,Absorbed organ dose Uterus,Range Max,0.0059 mGy
same,Absorbed organ dose Adrenals,Range Min,0.0052 mGy
same,Absorbed organ dose Brain,Range Min,0.0023 mGy
same,Absorbed organ dose Breast,Range Min,0.0021 mGy
same,Absorbed organ dose Gallbladder wall,Range Min,0.0050 mGy
same,Absorbed organ dose Heart wall,Range Min,0.0032 mGy
same,Absorbed organ dose Kidneys,Range Min,0.0094 mGy
same,Absorbed organ dose LLI wall,Range Min,0.0037 mGy
same,Absorbed organ dose Liver,Range Min,0.0064 mGy
same,Absorbed organ dose Lungs,Range Min,0.0034 mGy
same,Absorbed organ dose Muscle,Range Min,0.0028 mGy
same,Absorbed organ dose Osteogenic cells,Range Min,0.0099 mGy
same,Absorbed organ dose Ovaries,Range Min,0.0040 mGy
same,Absorbed organ dose Pancreas,Range Min,0.0055 mGy
same,Absorbed organ dose Red marrow,Range Min,0.0062 mGy
same,Absorbed organ dose Skin,Range Min,0.0018 mGy
same,Absorbed organ dose Small intestine,Range Min,0.0041 mGy
same,Absorbed organ dose Spleen,Range Min,0.0161 mGy
same,Absorbed organ dose Stomach wall,Range Min,0.0040 mGy
same,Absorbed organ dose Testes,Range Min,0.0023 mGy
same,Absorbed organ dose Thymus,Range Min,0.0030 mGy
same,Absorbed organ dose Thyroid,Range Min,0.0028 mGy
same,Absorbed organ dose Total body,Range Min,0.0028 mGy
same,Absorbed organ dose ULI wall,Range Min,0.0040 mGy
same,Absorbed organ dose Urinary bladder wall,Range Min,0.0033 mGy
same,Absorbed organ dose Uterus,Range Min,0.0038 mGy
same,"effective dose, range",per 500 MBq,2.1–3.4 mSv
same,"effective dose, median",standard activity of 500 MBq,2.7 mSv
